The Km is the concentration of substrate that gives half-maximal velocity.

Experiment [1] addresses T1, cyclodextrinase (Lysinibacillus sphaericus, UniProt Q08341).
T1 construct: is cultured in a medium to yield and accumulate said cyclodextrinase, and this enzyme is collected from the culture; made in house; host or cells: Bacillus sphaericus E-244 (FERM BP-2458), the natural wild-type producer strain; not recombinant
T1 sequence (Q08341 1-591): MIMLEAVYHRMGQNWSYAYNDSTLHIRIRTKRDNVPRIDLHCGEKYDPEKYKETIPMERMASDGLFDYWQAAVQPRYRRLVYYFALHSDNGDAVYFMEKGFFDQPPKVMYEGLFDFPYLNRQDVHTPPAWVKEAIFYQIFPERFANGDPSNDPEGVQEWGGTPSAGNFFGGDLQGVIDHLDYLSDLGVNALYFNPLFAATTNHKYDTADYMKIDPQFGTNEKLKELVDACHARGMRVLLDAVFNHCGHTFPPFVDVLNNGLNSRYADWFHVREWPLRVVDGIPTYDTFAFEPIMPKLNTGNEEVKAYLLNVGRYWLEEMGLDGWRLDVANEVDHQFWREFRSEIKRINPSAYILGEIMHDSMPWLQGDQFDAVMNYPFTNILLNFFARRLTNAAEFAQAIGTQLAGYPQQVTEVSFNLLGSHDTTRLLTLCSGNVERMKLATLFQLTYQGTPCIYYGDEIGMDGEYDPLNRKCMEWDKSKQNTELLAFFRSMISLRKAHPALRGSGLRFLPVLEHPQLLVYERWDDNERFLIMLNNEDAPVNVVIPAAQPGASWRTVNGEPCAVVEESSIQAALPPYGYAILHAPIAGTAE
Briefly: Influence of metal ions on the activity of the present enzyme. In kind it is biochemical, Bacillus sphaericus. To be noted: for Residual activity: ions added, final conc. 1 mM, none = 100. As for the experimental part: (§1) When the amount of the enzyme was small, the reducing power of the enzyme was determined according to Nelson-Somogyi's method, with glucose as standard.

Experiment [2] addresses T1, cyclodextrinase. Nature of the experiment: Substrate specificity of the present cyclodextrinase (relative hydrolysis rate). In kind it is biochemical, Bacillus sphaericus. The procedure: as §1
The target in experiment [3] is T1, cyclodextrinase. Nature of the experiment: Reaction rate parameters of the present enzyme for cyclodextrins and maltooligosaccharides. Type of experiment: biochemical, Bacillus sphaericus. The arrangement: Vmax: unit not given here. To be noted: for Relative value: Vmax/Km relative to β-cyclodextrin = 1.00. The procedure:
as §1

The subject of experiment [4] is cyclodextrinase. To be noted: Bacillus coagulans enzyme, prior literature; cited from earlier work.
The test system of experiment [5] is cyclodextrinase. To be noted: Bacillus macerans enzyme, prior literature; cited from earlier work.
The mark [6] stands for this setting: substrate conc. 2 mM, β-cyclodextrin = 100.
Setting [7] is: substrate conc. 0.1%, β-cyclodextrin (2 mM) = 100.

Where two headings read alike, the source gives them in different places.

Consider `[Ca+2]` [Ca^2+], for which, on cyclodextrinase [1], the “activation of the enzyme by metal ion” value is given as 10-30% and the Residual activity turned out to be 138.2%.

For the compound `[Cu+2]` [Cu^2+], the Residual activity at cyclodextrinase [1] worked out at 2.8%.

`[Fe+3]` [Fe^3+]: the Residual activity on cyclodextrinase [1] amounted to 41.6%; at cyclodextrinase [1] (listed as Fe^2+), 4.6%.

For `[Hg+2]` [Hg^2+], the Residual activity at cyclodextrinase [1] was 0.0%.

On cyclodextrinase [2] (setting [6]), `OC[C@H]1O[C@H](O[C@H]2[C@H](O)[C@@H](O)[C@@H](O[C@H]3[C@H](O)[C@@H](O)[C@@H](O[C@H]4[C@H](O)[C@@H](O)[C@@H](O[C@H]5[C@H](O)[C@@H](O)[C@@H](O[C@H]6[C@H](O)[C@@H](O)[C@@H](O[C@H]7[C@H](O)[C@@H](O)C(O)O[C@@H]7CO)O[C@@H]6CO)O[C@@H]5CO)O[C@@H]4CO)O[C@@H]3CO)O[C@@H]2CO)[C@H](O)[C@@H](O)[C@@H]1O` (some centres unmarked) [Maltoheptaose] gave a Relative hydrolysis rate of 66%. In addition, on cyclodextrinase [3], the Vmax came out at 0.060 and the Relative value amounted to 0.30.

In turn, `OC[C@H]1O[C@H](O[C@H]2[C@H](O)[C@@H](O)[C@@H](O[C@H]3[C@H](O)[C@@H](O)[C@@H](O[C@H]4[C@H](O)[C@@H](O)[C@@H](O[C@H]5[C@H](O)[C@@H](O)[C@@H](O[C@H]6[C@H](O)[C@@H](O)C(O)O[C@@H]6CO)O[C@@H]5CO)O[C@@H]4CO)O[C@@H]3CO)O[C@@H]2CO)[C@H](O)[C@@H](O)[C@@H]1O` (some centres unmarked) [Maltohexaose] had a Relative hydrolysis rate at cyclodextrinase [2] (setting [6]) of 43%. Moreover, at cyclodextrinase [3], the Vmax was found to be 0.075 and the Relative value is reported as 0.23. In addition, the Km in the experiment on cyclodextrinase [4] was 1.5 mM.

On cyclodextrinase [2] (setting [6]), `OC[C@H]1O[C@H](O[C@H]2[C@H](O)[C@@H](O)[C@@H](O[C@H]3[C@H](O)[C@@H](O)[C@@H](O[C@H]4[C@H](O)[C@@H](O)[C@@H](O[C@H]5[C@H](O)[C@@H](O)C(O)O[C@@H]5CO)O[C@@H]4CO)O[C@@H]3CO)O[C@@H]2CO)[C@H](O)[C@@H](O)[C@@H]1O` (some centres unmarked) [Maltopentaose] gave a Relative hydrolysis rate of 49%. Also, on cyclodextrinase [3], the Vmax was found to be 0.073 and the Relative value is given as 0.27.

With `OC[C@H]1O[C@H](O[C@H]2[C@H](O)[C@@H](O)[C@@H](O[C@H]3[C@H](O)[C@@H](O)[C@@H](O[C@H]4[C@H](O)[C@@H](O)C(O)O[C@@H]4CO)O[C@@H]3CO)O[C@@H]2CO)[C@H](O)[C@@H](O)[C@@H]1O` (some centres unmarked) [Maltotetraose], at cyclodextrinase [3], the Vmax is reported as 0.067 and the Relative value worked out at 0.15.

For `[Mg+2]` [Mg^2+], at cyclodextrinase [1], the “activation of the enzyme by metal ion” value is 10-30% and the Residual activity amounted to 111.3%.

In the case of `[Mn+2]` [Mn^2+], the Residual activity on cyclodextrinase [1] is 59.3%.

In the case of `[Ni+2]` [Ni^2+], the Residual activity at cyclodextrinase [1] is 0.9%.

For the compound `[Zn+2]` [Zn^2+], the Residual activity at cyclodextrinase [1] is 0.0%.

Turning to `OC[C@H]1O[C@@H]2O[C@H]3[C@H](O)[C@@H](O)[C@@H](O[C@H]4[C@H](O)[C@@H](O)[C@@H](O[C@H]5[C@H](O)[C@@H](O)[C@@H](O[C@H]6[C@H](O)[C@@H](O)[C@@H](O[C@H]7[C@H](O)[C@@H](O)[C@@H](O[C@H]1[C@H](O)[C@H]2O)O[C@@H]7CO)O[C@@H]6CO)O[C@@H]5CO)O[C@@H]4CO)O[C@@H]3CO` [α-cyclodextrin], the Relative hydrolysis rate at cyclodextrinase [2] (setting [6]) stood at 44%. Also, on cyclodextrinase [3], the Vmax was found to be 0.074 and the Relative value came out at 0.36. Moreover, the Km in the experiment on cyclodextrinase [5] is 2.62 mM. Also, the Km in the experiment with cyclodextrinase [4] was 10 mM.

For the compound `OC[C@H]1O[C@@H]2O[C@H]3[C@H](O)[C@@H](O)[C@@H](O[C@H]4[C@H](O)[C@@H](O)[C@@H](O[C@H]5[C@H](O)[C@@H](O)[C@@H](O[C@H]6[C@H](O)[C@@H](O)[C@@H](O[C@H]7[C@H](O)[C@@H](O)[C@@H](O[C@H]8[C@H](O)[C@@H](O)[C@@H](O[C@H]1[C@H](O)[C@H]2O)O[C@@H]8CO)O[C@@H]7CO)O[C@@H]6CO)O[C@@H]5CO)O[C@@H]4CO)O[C@@H]3CO` [β-cyclodextrin], the Relative hydrolysis rate on cyclodextrinase [2] (setting [6]) is 100%. For the same compound, at cyclodextrinase [3], the Vmax was determined as 0.110 and the Relative value is listed as 1.00. Moreover, in the experiment on cyclodextrinase [5], the Km was 2.65 mM. Further, the Km in the experiment on cyclodextrinase [4] was 2.8 mM.

For `OC[C@H]1O[C@@H]2O[C@H]3[C@H](O)[C@@H](O)[C@@H](O[C@H]4[C@H](O)[C@@H](O)[C@@H](O[C@H]5[C@H](O)[C@@H](O)[C@@H](O[C@H]6[C@H](O)[C@@H](O)[C@@H](O[C@H]7[C@H](O)[C@@H](O)[C@@H](O[C@H]8[C@H](O)[C@@H](O)[C@@H](O[C@H]9[C@H](O)[C@@H](O)[C@@H](O[C@H]1[C@H](O)[C@H]2O)O[C@@H]9CO)O[C@@H]8CO)O[C@@H]7CO)O[C@@H]6CO)O[C@@H]5CO)O[C@@H]4CO)O[C@@H]3CO` [γ-cyclodextrin], on cyclodextrinase [3], the Vmax worked out at 0.039 and the Relative value stood at 0.09.

Take Amylopectin: the Relative hydrolysis rate at cyclodextrinase [2] (setting [7]) amounted to 0.7%.

On to Amylose [Amylose (G18)], for which, on cyclodextrinase [2] (setting [7]), the Relative hydrolysis rate is 44%.

Amylose [Amylose (G99)] gave a Relative hydrolysis rate at cyclodextrinase [2] (setting [7]) of 3.7%.

In turn, Dextran yielded a Relative hydrolysis rate at cyclodextrinase [2] (setting [7]) of 11%.

Pullulan returned a Relative hydrolysis rate on cyclodextrinase [2] (setting [7]) of 1.5%.

As for Starch, the Relative hydrolysis rate at cyclodextrinase [2] (setting [7]) is 2.9%.

The values are drawn from patent US5238825A, “Preparation and use of a cyclodextrinase for preparing maltooligosaccharides” (Kikkoman Corporation, priority 1989, dated 1993).
